Data taken from ChEMBL document CHEMBL1201862, “PubChem BioAssay data set” (2004).
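Cultured in 96-well plates, cells were exposed to test compound for 48 hours across five concentrations. GI50: concentration for 50% inhibition of growth.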 The source made the active and inactive calls. Cut-off read from the data, not from the text of the source: active = GI50 up to about 1.1 µM and inactive = higher.

Legend:
Assay in all cases: NCI anticancer screen, dose series, 48 h
MCF7 = tested on: MCF7
OVCAR-4 = tested on: OVCAR-4
MDA-MB-231 = tested on: MDA-MB-231
M14 = tested on: M14
786-0 = tested on: 786-0
A498 = tested on: A498
HOP-62 = tested on: HOP-62
BT-549 = tested on: BT-549
HCT-116 = tested on: HCT-116
UACC-257 = tested on: UACC-257
HCT-15 = tested on: HCT-15
Hs-578T = tested on: Hs-578T
CAKI-1 = tested on: CAKI-1
RPMI-8226 = tested on: RPMI-8226
SNB-19 = tested on: SNB-19
UO-31 = tested on: UO-31
MDA-MB-435 = tested on: MDA-MB-435
SK-MEL-28 = tested on: SK-MEL-28
SF-268 = tested on: SF-268

CCCCCCOc1ccc(C(=O)NOCc2ccccc2)cc1
GI50 (MCF7): > 100 µM (inactive)
GI50 (OVCAR-4): > 100 µM (inactive)
GI50 (MDA-MB-231): > 100 µM (inactive)
GI50 (M14): > 100 µM (inactive)
GI50 (786-0): > 100 µM (inactive)
GI50 (A498): > 100 µM (inactive)
GI50 (HOP-62): > 100 µM (inactive)
GI50 (BT-549): > 100 µM (inactive)
GI50 (HCT-116): > 100 µM (inactive)
GI50 (UACC-257): > 100 µM (inactive)
GI50 (HCT-15): 63.8 µM
GI50 (Hs-578T): > 100 µM (inactive)
GI50 (CAKI-1): > 100 µM (inactive)
GI50 (RPMI-8226): 42.2 µM (inactive)
GI50 (SNB-19): > 100 µM (inactive)
GI50 (UO-31): > 100 µM (inactive)
GI50 (MDA-MB-435): 41.3 µM (inactive)
GI50 (SK-MEL-28): > 100 µM (inactive)
GI50 (SF-268): > 100 µM (inactive)

N#CCCN(CCC#N)c1ccc(/C=C2\N=C(c3ccccc3)N(NC(N)=S)C2=O)cc1
GI50 (MCF7): > 100 µM (inactive)
GI50 (OVCAR-4): > 100 µM (inactive)
GI50 (MDA-MB-231): > 100 µM (inactive)
GI50 (M14): > 100 µM (inactive)
GI50 (786-0): > 100 µM (inactive)
GI50 (A498): > 100 µM (inactive)
GI50 (HOP-62): > 100 µM (inactive)
GI50 (BT-549): > 100 µM (inactive)
GI50 (HCT-116): > 100 µM (inactive)
GI50 (UACC-257): > 100 µM (inactive)
GI50 (HCT-15): > 100 µM
GI50 (Hs-578T): > 100 µM (inactive)
GI50 (CAKI-1): > 100 µM (inactive)
GI50 (RPMI-8226): > 100 µM (inactive)
GI50 (SNB-19): > 100 µM (inactive)
GI50 (UO-31): > 100 µM (inactive)
GI50 (MDA-MB-435): 41.4 µM (inactive)
GI50 (SK-MEL-28): > 100 µM (inactive)
GI50 (SF-268): > 100 µM (inactive)

COc1ccc(/C=N/c2nc3cc4sc(/N=C/c5ccc(OC)cc5)nc4cc3s2)cc1
GI50 (MCF7): 11.6 µM (inactive)
GI50 (OVCAR-4): 57.4 µM (inactive)
GI50 (MDA-MB-231): 98.6 µM (inactive)
GI50 (M14): 58.2 µM (inactive)
GI50 (786-0): > 76.4 µM (inactive)
GI50 (A498): > 100 µM (inactive)
GI50 (HOP-62): > 49.2 µM (inactive)
GI50 (BT-549): 27.3 µM (inactive)
GI50 (HCT-116): 18.4 µM (inactive)
GI50 (UACC-257): 70.6 µM (inactive)
GI50 (HCT-15): 19.5 µM
GI50 (Hs-578T): > 32.7 µM (inactive)
GI50 (CAKI-1): 27 µM (inactive)
GI50 (RPMI-8226): 41.8 µM (inactive)
GI50 (SNB-19): > 100 µM (inactive)
GI50 (UO-31): 55.7 µM (inactive)
GI50 (MDA-MB-435): 29.7 µM (inactive)
GI50 (SK-MEL-28): > 86.1 µM (inactive)
GI50 (SF-268): 56.8 µM (inactive)

O=C1CCCC2=C1CC1=C(CCCC1=O)N2c1ccc(-c2ccccc2)cc1
GI50 (MCF7): > 100 µM (inactive)
GI50 (OVCAR-4): > 100 µM (inactive)
GI50 (MDA-MB-231): > 100 µM (inactive)
GI50 (M14): > 100 µM (inactive)
GI50 (786-0): > 69.7 µM (inactive)
GI50 (A498): > 100 µM (inactive)
GI50 (HOP-62): > 100 µM (inactive)
GI50 (BT-549): > 40 µM (inactive)
GI50 (HCT-116): > 100 µM (inactive)
GI50 (UACC-257): > 100 µM (inactive)
GI50 (HCT-15): > 100 µM
GI50 (Hs-578T): 43.2 µM (inactive)
GI50 (CAKI-1): > 100 µM (inactive)
GI50 (RPMI-8226): > 100 µM (inactive)
GI50 (SNB-19): > 63.2 µM (inactive)
GI50 (UO-31): > 100 µM (inactive)
GI50 (MDA-MB-435): > 100 µM (inactive)
GI50 (SK-MEL-28): > 100 µM (inactive)
GI50 (SF-268): > 63.5 µM (inactive)

CCOC(=O)c1csc(-c2cn(C)c3c2C(=O)C(OC)=CC3=O)n1
GI50 (MCF7): 7.6 µM (inactive)
GI50 (OVCAR-4): 42.8 µM (inactive)
GI50 (MDA-MB-231): 18.3 µM (inactive)
GI50 (M14): 14 µM (inactive)
GI50 (786-0): > 100 µM (inactive)
GI50 (A498): 24.3 µM (inactive)
GI50 (HOP-62): 23.2 µM (inactive)
GI50 (BT-549): > 40.3 µM (inactive)
GI50 (HCT-116): 18.3 µM (inactive)
GI50 (UACC-257): 21.6 µM (inactive)
GI50 (HCT-15): 9.75 µM
GI50 (Hs-578T): 21.2 µM (inactive)
GI50 (CAKI-1): > 91.2 µM (inactive)
GI50 (RPMI-8226): 9.53 µM (inactive)
GI50 (SNB-19): 14.2 µM (inactive)
GI50 (UO-31): 44.4 µM (inactive)
GI50 (MDA-MB-435): 3.27 µM (inactive)
GI50 (SK-MEL-28): 32.6 µM (inactive)
GI50 (SF-268): > 62.5 µM (inactive)

COc1cc(C2C3=C(COC3=O)OC(C)(C)Oc3cc4c(cc32)OCO4)cc(OC)c1O (centres undefined)
GI50 (MCF7): 0.364 µM (active)
GI50 (OVCAR-4): > 38.8 µM (inactive)
GI50 (MDA-MB-231): 0.76 µM (active)
GI50 (M14): 1.09 µM (active)
GI50 (786-0): 1.12 µM (active)
GI50 (A498): 1.04 µM (active)
GI50 (HOP-62): 0.791 µM (active)
GI50 (BT-549): 12.9 µM (inactive)
GI50 (HCT-116): 0.548 µM (active)
GI50 (UACC-257): 5.14 µM (inactive)
GI50 (HCT-15): 0.873 µM
GI50 (Hs-578T): 1.56 µM (inactive)
GI50 (CAKI-1): 1.87 µM (inactive)
GI50 (RPMI-8226): 1.62 µM (inactive)
GI50 (SNB-19): 1.33 µM (inactive)
GI50 (UO-31): 7.1 µM (inactive)
GI50 (MDA-MB-435): 0.217 µM (active)
GI50 (SK-MEL-28): 0.973 µM (active)
GI50 (SF-268): 0.916 µM (active)

Cn1c(-c2ccccc2)cc(-c2ccc3c(c2)OCO3)c1-c1ccsc1
GI50 (MCF7): > 100 µM (inactive)
GI50 (OVCAR-4): > 100 µM (inactive)
GI50 (MDA-MB-231): > 100 µM (inactive)
GI50 (M14): > 100 µM (inactive)
GI50 (786-0): > 100 µM (inactive)
GI50 (A498): > 100 µM (inactive)
GI50 (HOP-62): > 100 µM (inactive)
GI50 (BT-549): > 100 µM (inactive)
GI50 (HCT-116): > 100 µM (inactive)
GI50 (UACC-257): > 100 µM (inactive)
GI50 (HCT-15): > 100 µM
GI50 (Hs-578T): > 100 µM (inactive)
GI50 (CAKI-1): > 100 µM (inactive)
GI50 (RPMI-8226): > 100 µM (inactive)
GI50 (SNB-19): > 100 µM (inactive)
GI50 (UO-31): > 100 µM (inactive)
GI50 (MDA-MB-435): > 100 µM (inactive)
GI50 (SK-MEL-28): > 100 µM (inactive)
GI50 (SF-268): > 100 µM (inactive)

Cc1cc(S(=O)(=O)Nc2nc(N)n(-c3ccccc3)n2)c(S)cc1Cl
GI50 (MCF7): > 100 µM (inactive)
GI50 (OVCAR-4): > 100 µM (inactive)
GI50 (MDA-MB-231): > 100 µM (inactive)
GI50 (M14): > 100 µM (inactive)
GI50 (786-0): > 100 µM (inactive)
GI50 (A498): > 100 µM (inactive)
GI50 (HOP-62): > 100 µM (inactive)
GI50 (BT-549): 45.1 µM (inactive)
GI50 (HCT-116): > 100 µM (inactive)
GI50 (UACC-257): > 100 µM (inactive)
GI50 (HCT-15): > 100 µM
GI50 (Hs-578T): 70 µM (inactive)
GI50 (CAKI-1): > 100 µM (inactive)
GI50 (RPMI-8226): > 100 µM (inactive)
GI50 (SNB-19): 43.1 µM (inactive)
GI50 (UO-31): > 100 µM (inactive)
GI50 (MDA-MB-435): > 100 µM (inactive)
GI50 (SK-MEL-28): > 100 µM (inactive)
GI50 (SF-268): > 100 µM (inactive)

CC(C)=CCC/C(C)=C/Cc1cc(/C=C/c2cc(O)c(CC=C(C)C)c(O)c2)cc(O)c1O [MAPPAIN]
GI50 (MCF7): 3.45 µM (inactive)
GI50 (OVCAR-4): 1.94 µM (inactive)
GI50 (MDA-MB-231): 11.2 µM (inactive)
GI50 (M14): 4.26 µM (inactive)
GI50 (786-0): 4.6 µM (inactive)
GI50 (A498): 6.56 µM (inactive)
GI50 (HOP-62): 11.4 µM (inactive)
GI50 (BT-549): 3.29 µM (inactive)
GI50 (HCT-116): 3.37 µM (inactive)
GI50 (UACC-257): 1.67 µM (inactive)
GI50 (HCT-15): 3.05 µM
GI50 (Hs-578T): 10.8 µM (inactive)
GI50 (CAKI-1): 5.42 µM (inactive)
GI50 (RPMI-8226): 0.506 µM (active)
GI50 (SNB-19): 4.5 µM (inactive)
GI50 (UO-31): 1.29 µM (inactive)
GI50 (MDA-MB-435): 2.55 µM (inactive)
GI50 (SK-MEL-28): 5.18 µM (inactive)
GI50 (SF-268): 2.64 µM (inactive)

CC(C)C1CCC(=O)CC1CCCCC1CC(=O)CC1O[Si](C)(C)C(C)(C)C (centres undefined)
GI50 (MCF7): 4.12 µM (inactive)
GI50 (OVCAR-4): 12.7 µM (inactive)
GI50 (MDA-MB-231): 14.6 µM (inactive)
GI50 (M14): 6.1 µM (inactive)
GI50 (786-0): 3.89 µM (inactive)
GI50 (A498): 8.09 µM (inactive)
GI50 (HOP-62): 7.06 µM (inactive)
GI50 (BT-549): 4.25 µM (inactive)
GI50 (HCT-116): 3.18 µM (inactive)
GI50 (UACC-257): 6.4 µM (inactive)
GI50 (HCT-15): 3.44 µM
GI50 (Hs-578T): 3.03 µM (inactive)
GI50 (CAKI-1): 5.58 µM (inactive)
GI50 (RPMI-8226): 1.95 µM (inactive)
GI50 (SNB-19): 3.98 µM (inactive)
GI50 (UO-31): 7.66 µM (inactive)
GI50 (MDA-MB-435): 2.95 µM (inactive)
GI50 (SK-MEL-28): 5.92 µM (inactive)
GI50 (SF-268): 2.54 µM (inactive)

O=c1[nH]/c(=C/c2ccc(OCc3ccccc3)cn2)c(=O)[nH]/c1=C/c1ccc([N+](=O)[O-])cc1
GI50 (MCF7): > 100 µM (inactive)
GI50 (OVCAR-4): > 100 µM (inactive)
GI50 (MDA-MB-231): > 89.3 µM (inactive)
GI50 (M14): > 100 µM (inactive)
GI50 (786-0): > 100 µM (inactive)
GI50 (A498): 43 µM (inactive)
GI50 (HOP-62): 55.1 µM (inactive)
GI50 (BT-549): 54.7 µM (inactive)
GI50 (HCT-116): > 100 µM (inactive)
GI50 (UACC-257): > 100 µM (inactive)
GI50 (HCT-15): > 100 µM
GI50 (Hs-578T): 35.8 µM (inactive)
GI50 (CAKI-1): > 37.8 µM (inactive)
GI50 (RPMI-8226): > 100 µM (inactive)
GI50 (SNB-19): > 64.7 µM (inactive)
GI50 (UO-31): > 100 µM (inactive)
GI50 (MDA-MB-435): > 100 µM (inactive)
GI50 (SK-MEL-28): > 100 µM (inactive)
GI50 (SF-268): > 54.2 µM (inactive)
